Among the data in PubChem BioAssay (NCI) are TGI and GI50 values, retold here.

Holding throughout (assay): NCI anticancer screen, dose series, 48 h
The test system of test [1] is KM20L2 colon.
Test [2] has as its system K-562 leukemia.
For test [3], the system named is M19-MEL melanoma.
In test [4] the test system is SK-MEL-5 melanoma.
The subject of test [5] is A498 renal.
Test [6] deals with HCC-2998 colon.
Test [7] has as its system OVCAR-4 ovarian.
Test [8] deals with DU-145 prostate.
Test [9] relates to MCF7 breast.
For test [10], the system named is MDA-MB-435.

Values joined by “and” are separate entries in the source; they are usually repeats but may differ in a detail not shown here. Identical values can stand only once.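 Following 48 hours of exposure in 96-well plates, responses at five concentrations were used to interpolate endpoints linearly. The concentration for 50% growth inhibition is given as GI50. The concentration for full growth arrest is given as TGI.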 Some results are limits rather than exact numbers.

Regarding `O=C1NC(=O)C(=Cc2c3ccccc3cc3ccccc23)C(=O)N1`, the TGI in test [1], in [2], in test [3], in test [4] and in test [5] was greater than 100 µM each time.

Take `Cc1cc(C)nc(NS(=O)(=O)c2ccc(Nc3c4ccccc4nc4c(C(=O)Nc5ccc(S(=O)(=O)Nc6cc(C)on6)cc5)ccc(Cl)c34)cc2)n1`: the TGI in test [1] was 35.4 µM; in [6] it was 32.6 µM; in test [7], 65.3 µM; in test [2], greater than 100 µM; in [3], greater than 100 µM; in test [5], 38.3 µM.

As to `COc1cccc2c1C(=O)c1c(O)c3c(c(O)c1C2=O)C[C@@](O)(C(C)=O)C[C@@H]3OC1CC([N+]([O-])(Cc2ccccc2)Cc2ccccc2)C(O)C(C)O1` (some centres not stated), the TGI turned out to be 2.92 µM in test [1]; 3.07 µM in test [6]; 4.17 µM in [7]; 2.76 µM in test [3]; 2.71 µM in test [4]; 8.53 µM in test [5].

With `COC1CC(C)C(OC)c2cc(O)cc(c2O)NC(=O)/C(C)=C/C=C\C(C)C(OC(N)=O)/C(C)=C\C(C)C1OC` (configuration not stated), the GI50 was 0.21 µM in [1]; 1.59 µM in [8]; 0.318 µM in test [6]; 0.0482 µM in test [9]; 2.51 µM in [7]; 0.0333 µM and 0.143 µM and 0.0785 µM in test [2]. For the same compound, the GI50 was 0.498 µM in test [3]; 0.691 µM and 0.599 µM in test [4]; 18.4 µM in [5]. Further, the TGI was 22.4 µM and 8.94 µM in test [8]; 9.78 µM and 11.3 µM in [6]; 10.5 µM in [9]; 7.87 µM and 10.1 µM in [7]; 32.2 µM and 6.1 µM in [10]; 15.2 µM and 10.7 µM in test [3]. The TGI is 18.1 µM and 5.29 µM in test [4]; 38.1 µM and 14.8 µM in test [5].

Take `CC1(C)OC2CC3COC(=O)C3CC2O1` (configuration not stated): the TGI in test [1], in test [6], in test [7], in test [2], in test [3] and in test [4] was greater than 100 µM throughout. In addition, the TGI in [5] is greater than 100 µM.

Regarding `CCN(CCCl)CCCCCNc1c2ccccc2nc2ccc(OC)cc12`, the TGI was 4.38 µM in test [1]; 2.94 µM in [6]; 3.42 µM in [7]; 1.06 µM in [2]; 2.15 µM in test [3]; 2.69 µM in test [4]. Moreover, the TGI in test [5] is 3.52 µM.

For `COC1(OC)C2(Cl)C(Cl)=C(Cl)C1(Cl)C1c3ccc(C(C)=O)c4cccc(c34)C12` (configuration not stated), the TGI was 87.4 µM in test [1]; greater than 100 µM in test [8]; 52.7 µM in test [6]; greater than 100 µM in test [9]; greater than 100 µM in [7]; greater than 100 µM in [2]. Moreover, the TGI in [10] is 43.5 µM; in [3] it was greater than 100 µM; in [4] it was 27.7 µM; in [5] it was 32.1 µM.

Take `CC(C)=O.O=C([O-])C(F)(F)F.O=C([O-])C(F)(F)F.O=C([O-])C(F)(F)F.O=C([O-])C(F)(F)F.[Rh+2].[Rh+2]`: the GI50 in [1] is greater than 100 µM; in test [6], greater than 100 µM; in [7], 69.7 µM; in [2] it was 31.8 µM; in test [3] it was 47.4 µM; in test [4], greater than 100 µM. The TGI in test [1], in [6], in test [7], in test [2], in test [3] and in test [4] was greater than 100 µM in each case.

`S=c1nc(C(c2ccccc2)c2ccccc2)[nH][nH]1`: the TGI in [1], in [6], in [2], in test [3], in test [4] and in test [5] was greater than 100 µM in each case.

As for `O=c1/c(=C/c2c(O)ccc3ccccc23)sc2nc3ccccc3n12`, the TGI in [1], in [6], in test [7], in test [2], in test [3] and in [4] was greater than 100 µM throughout. This compound yielded a TGI in [5] greater than 100 µM.

`O=C1C=CC(=O)C2C1Cc1ccccc1C2c1ccccc1` (configuration not stated): the TGI in test [1] was greater than 100 µM; in test [6], 60 µM; in [7], 46 µM; in test [2], greater than 100 µM; in [3] it was greater than 100 µM; in test [4] it was greater than 100 µM. Besides, the TGI in [5] was found to be 73.1 µM.

Consider `COC1=CC(=O)C(Br)=CC1=O`, for which the TGI is greater than 100 µM in [1]; greater than 100 µM in test [6]; 32.1 µM in test [7]; 9.1 µM in test [2]; 32 µM in [3]; 34.5 µM in [4].

For `O=c1nc(NC(c2ccccc2)(c2ccccc2)c2ccccc2)ccn1CCCl`, the TGI in test [1] was 33 µM; in [6] it was 28 µM; in test [7], 53.1 µM; in test [2], 63.3 µM; in test [3], 40.5 µM; in test [5], greater than 100 µM.

With `C#CCN(N=O)C(=O)NCCCCC(NC(=O)OCc1ccccc1)C(=O)OCc1ccccc1` (configuration not stated), the TGI in test [1] is greater than 100 µM; in test [6] it was greater than 100 µM; in test [7] it was greater than 100 µM; in [2], 56.9 µM; in test [3] it was 63 µM; in test [4], greater than 100 µM. The TGI in test [5] is greater than 100 µM.

`CC(CN1CC(=O)NC(=O)C1)N1CC(=O)NC(=O)C1` (configuration not stated): the TGI in [1], in test [8], in test [6], in test [9], in [7] and in [2] was greater than 750 µM in each case. Also, the TGI in test [10] was greater than 750 µM; in [3], 745 µM; in [4], greater than 750 µM; in test [5], greater than 750 µM.

Consider `O=S(=O)(c1ccccc1)c1nccs1`, for which the TGI in test [1], in [6], in [7], in [2], in test [3] and in [4] was greater than 100 µM throughout. In addition, the TGI in test [5] is greater than 100 µM.

For the compound `O=C1OC(c2ccccc2)(c2ccccc2)c2ccc3ccc(F)cc3c21`, the TGI in [1], in [6], in test [7], in [2], in test [3] and in test [4] was greater than 100 µM each time. The compound also registered a TGI in test [5] greater than 100 µM.

Consider `Cc1ccc(NC(=O)C(=O)C(C(=O)c2ccc3ccccc3c2)C2OC(=O)c3ccccc32)c(C)c1` (configuration not stated), for which the TGI in test [1] was 56 µM; in test [6] it was 21.1 µM; in test [7] it was 25.6 µM; in test [2], greater than 100 µM; in [3], 22.6 µM; in test [4] it was 24 µM. The same compound came in with a TGI in test [5] of 20 µM.

For the compound `CCO/C(CCn1[nH]c(=O)c(Cl)c(Cl)c1=O)=N\NC(=O)C(=O)NN`, the TGI in test [1], in test [6], in [7], in test [2], in [3] and in test [4] was greater than 100 µM in each case. This compound registered a TGI in [5] greater than 100 µM.

Turning to `Cc1cc2c(cc1C)[n+](=O)c(C(=O)/C=C/c1ccc3c(c1)OCO3)c(C)n2[O-]`, the TGI in [1], in test [8], in test [6], in [9], in [7] and in test [2] was greater than 100 µM each time. Besides, the TGI in test [10], in test [3], in test [4] and in [5] was greater than 100 µM throughout.
